# Measurements: EP4559927A1, “CARRIER PEPTIDE FRAGMENT AND USE THEREOF” (Toagosei Co., Ltd., priority 2022, dated 2025)
# Primed or numbered codes have the meaning given here. FAM = 5(6)-carboxyfluorescein; FAM″ = C-terminal FAM dye
# System: NSC-34 cells
# Assay: Evaluation on cell membrane permeability by flow cytometry
# Type: cell-based, mouse
# Conditions: median fluorescence intensity of FAM (detector FL2), 25 µM construct, 0.42% DMSO, 20 hours at 37°C, 5% CO2
# Protocol: As the eukaryotic cells, NSC-34 cells (mouse motor neuron-like hybrid cell line) were used and the cell membrane permeability of the samples 1 to 7 was analyzed. In Examples 1 to 7, the prepared sample solutions 1 to 7 were used, respectively, and in Example 8, a FAM solution was used.
# The NSC-34 cells were cultured in 10% fetal bovine serum (FBS)-containing Dulbecco's modified Eagle's medium (DMEM (Cat No. 044-29765, manufactured by FUJIFILM Wako Pure Chemical Corporation)), which is a normal culture medium.
# The NSC-34 cells that adhered to a culture plate were cleaned with PBS and then, a 0.25%-trypsin/EDTA solution was added thereto, and incubation was performed for three minutes at 37°C. After the incubation, the aforementioned 10% FBS-containing DMEM was added to deactivate trypsin and then, five-minute centrifugal separation was performed at 150 × g to precipitate the cells. After the supernatant generated by the centrifugal separation was removed, the 10% FBS-containing DMEM was added to the precipitate (cell pellet) to prepare a cell suspension of about 2 × 10^5 cells/mL. The cell suspension was added by 1 mL to a well of a commercially available six-hole (well) plate (manufactured by AGC TECHNO GLASS Co., Ltd.) so as to seed the cell (about 2 × 10^5 cells/well). In addition, the 6 mM sample solution 1 was diluted with the 10% FBS-containing DMEM to prepare the sample solution 1 in which the concentration of the sample 1 was 50 µM. Then, 1 mL of the 50 µM sample solution 1 was added to the well (that is, so that the concentration of the sample 1 became 25 µM and the DMSO concentration became 0.42% in the culture solution in the well). After that, the cell was incubated for 20 hours at 37°C under a 5% CO2 condition.
# After the 20-hour incubation, the culture supernatant was removed from the well and the cells in the well were cleaned twice with 1 mL of PBS. Next, 200 µL of the 0.25% trypsin/EDTA solution was added to the well and the incubation was performed for three minutes at 37°C. After the incubation, 400 µL of the 10% FBS-containing DMEM was added to the well to deactivate the trypsin. Subsequently, the cell suspension in the well was transferred to a tube and the cells were collected. After that, 600 µL of PBS was added further to the well to clean the well. Then, PBS in the well was transferred to the tube, so that the cells remaining in the well were collected in the tube. This tube was subjected to five-minute centrifugal separation at 4°C under a condition of 210 × g. After the centrifugal separation, the supernatant was removed and the precipitate (cell pellet) was suspended (cleaned) with 1 mL of PBS, which was followed by the centrifugal separation under the same condition as that described above. After this operation was repeated twice, the supernatant was removed and thus, the cells (cell pellet) cultured in a culture medium containing the sample 1 were obtained.
# Regarding the obtained cells (cell pellet), the cell membrane permeability of the sample 1 was analyzed using a flow cytometer. As the flow cytometer, On-Chip Flowcytometer (manufactured by On-Chip Biotechnologies Co., LTD.) was used.
# For such an analysis, the obtained cell pellet was suspended with 100 µL of on-chip T buffer to prepare a cell suspension for analysis.
# Using the aforementioned flow cytometer, gating based on forward scatter (FSC) and side scatter (SSC) was performed to set a gate about a cell group to be analyzed, and the fluorescence intensity was measured about the cell group in this gate. Note that the analysis was performed so that the cell group contained at least 10000 cells or more. The fluorescence intensity was measured using a fluorescence detector FL2 of the flow cytometer (optimum detection wavelength around 543 nm) capable of detecting the fluorescence wavelength of FAM. […]
row,Substance,MFI
1,5(6)-carboxyfluorescein [Example 8],11
2,Ac-KKRTLRKDDEERKKR-FAM (Ac-KKRTLRKDDEERKKR-{FAM}) [Example 5],14.8
3,Ac-KKRTLRKDEDERKKR-FAM [Example 6],15.2
4,Ac-KKRTLRKDERKKR-FAM (Ac-KKRTLRKDERKKR-{FAM}) [Example 1],16.3
5,Ac-KKRTLRKEDEDEDRKKR-FAM (Ac-KKRTLRKEDEDEDRKKR-{FAM}) [Example 7],14.3
6,Ac-KKRTLRKEDEDRKKR-FAM (Ac-KKRTLRKEDEDRKKR-{FAM″}) [Example 3],13.8
7,Ac-KKRTLRKEDRKKR-FAM (Ac-KKRTLRKEDRKKR-{FAM}) [Example 2],15.7
8,Ac-KKRTLRKEEDDRKKR-FAM (Ac-KKRTLRKEEDDRKKR-{FAM}) [Example 4],14.3
